Values of other authors in US7601757B2, “Lipid system and methods of use” (Abbott Laboratories, priority 2003, dated 2009).

Experiments:
[1] = system: genetically insulin-resistant diabetic mice (KK-Ay); details: 21 days after daily administration by gavage
[2] = system: obese individuals with markers of insulin resistance; details: diets rich in alpha-linolenic acid as margarine and muffins made with flaxseed oil

## CC/C=C\C/C=C\C/C=C\CCCCCCCC(=O)O [alpha-linolenic acid]
[1]
  Blood glucose response to insulin: significant improvement
[2]
  Insulin sensitivity: decreased
